The compounds below were run against T1, Recombinant human GSK3β (Homo sapiens, UniProt P49841) (assay: GSK-3β (Glycogen Synthase Kinase) cell free enzyme assay). Conditions: 1 μM; Examples 157-199; read-out: Percent inhibition at 1 μM.
T1 construct: His-tag; made in house; host or cells: Sf9 insect cells / baculovirus
Assay type: biochemical
Method in brief: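 Recombinant human GSK3β, expressed in SF9/baculovirus cells and His-tag purified on Ni-NTA Superflow, was preincubated with test agent for 30 minutes at room temperature. Substrate mix was then added to start the reaction in 8 mM MOPS (pH 7.0), 10 mM magnesium acetate, 0.2 mM EDTA, 1 mM DTT, 2 uM cold ATP, 0.025 uCi/well [33P]ATP (120 uL) and 1.0 uM biotinylated peptide. Reactions ran at RT for 60 min.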

T1 sequence (P49841 whole entry): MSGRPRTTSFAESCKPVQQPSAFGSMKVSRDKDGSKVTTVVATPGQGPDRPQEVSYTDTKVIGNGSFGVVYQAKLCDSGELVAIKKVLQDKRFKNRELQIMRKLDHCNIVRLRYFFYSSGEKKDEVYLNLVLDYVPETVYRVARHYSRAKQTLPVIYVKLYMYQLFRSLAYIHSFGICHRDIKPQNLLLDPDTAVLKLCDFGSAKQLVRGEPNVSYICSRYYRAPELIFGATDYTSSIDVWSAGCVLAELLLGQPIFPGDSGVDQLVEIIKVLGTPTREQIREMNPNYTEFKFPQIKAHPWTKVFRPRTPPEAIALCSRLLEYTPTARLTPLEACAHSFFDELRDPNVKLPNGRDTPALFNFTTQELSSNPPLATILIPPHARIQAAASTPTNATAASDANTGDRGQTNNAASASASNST

inhibition at 1 µM [%]	Structure (SMILES)
35	Cn1c(NCC2CN(S(=O)(=O)c3ccccc3)C2)nc(-c2ccncc2)cc1=O [Example 190, 3-Methyl-2-({[1-(phenylsulfonyl)azetidin-3-yl]methyl}amino)-6-pyridin-4-ylpyrimidin-4(3H)-one]
76	Cn1c(NCC2CCN(S(=O)(=O)c3ccccc3)C2)nc(-c2ccncc2)cc1=O (stereo not shown) [Example 191, 3-Methyl-2-({[1-(phenylsulfonyl)pyrrolidin-3-yl]methyl}amino)-6-pyridin-4-ylpyrimidin-4(3H)-one]
81	Cn1c(NC2CCCN(S(=O)(=O)Cc3ccccc3)CC2)nc(-c2ccncc2)cc1=O (stereo not shown) [Example 192, 2-{[1-(Benzylsulfonyl)azepan-4-yl]amino}-3-methyl-6-pyridin-4-ylpyrimidin-4(3H)-one]
80	Cn1c(N2CC[C@@H]3CN(S(=O)(=O)Cc4ccccc4)C[C@@H]32)nc(-c2ccncc2)cc1=O [Example 193, 2-[(3a,R6,aR)-5-(Benzylsulfonyl)hexahydro-pyrrolo[34-b]pyrrol-1(2H)-yl]-3-methyl-6-pyridin-4-ylpyrimidin-4(3H)-one]
90	CN(c1nc(-c2ccncc2)cc(=O)n1C)C1CCN(S(=O)(=O)Cc2ccccc2)C1 (stereo not shown) [Example 194, 2-{[1-(Benzylsulfonyl)pyrrolidin-3-yl](methyl)amino}-3-methyl-6-pyridin-4-ylpyrimidin-4(3H)-one]
92	CN(c1nc(-c2ccncc2)cc(=O)n1C)[C@@H]1CC[C@H]2N(S(=O)(=O)Cc3ccccc3)CCC2(C)C1 (stereo partly drawn) [Example 195, 2-{[(3,aS5,R7,aR)-1-(Benzylsulfonyl)-3a-methyloctahydro-1H-indol-5-yl](methyl)amino}-3-methyl-6-pyridin-4-ylpyrimidin-4(3H)-one]
94	CN(c1nc(-c2ccncc2)cc(=O)n1C)C1CCCN(S(=O)(=O)Cc2ccccc2)CC1 (stereo not shown) [Example 196, 2-{[1-(Benzylsulfonyl)azepan-4-yl](methyl)amino}-3-methyl-6-pyridin-4-ylpyrimidin-4(3H)-one]
93	CCN(c1nc(-c2ccncc2)cc(=O)n1C)C1CCCN(S(=O)(=O)Cc2ccccc2)CC1 (stereo not shown) [Example 197, 2-{[1-(Benzylsulfonyl)azepan-4-yl](ethyl)amino}-3-methyl-6-pyridin-4-ylpyrimidin-4(3H)-one]
97	CCN(c1nc(-c2ccncc2)cc(=O)n1C)C1CCN(S(=O)(=O)Cc2ccccc2)C1 (stereo not shown) [Example 198, 2-{[1-(Benzylsulfonyl)pyrrolidin-3-yl](ethyl)amino}-3-methyl-6-pyridin-4-ylpyrimidin-4(3H)-one]
89	CCN(c1nc(-c2ccncc2)cc(=O)n1C)C1CCN(S(=O)(=O)Cc2ccccc2)CC1 [Example 199, 2-{[1-(Benzylsulfonyl)piperidin-4-yl](ethyl)amino}-3-methyl-6-pyridin-4-ylpyrimidin-4(3H)-one]

Same assay, conditions: 1 μM; Examples 201-221

Percent inhibition at 1 μM [%]	Structure (SMILES)
99	COC(=O)N1CCCC(N(C)c2nc(-c3ccncc3)cc(=O)n2C)CC1 (stereo not shown) [Example 214, Methyl 4-[methyl(1-methyl-6-oxo-4-pyridin-4-yl-16-dihydropyrimidin-2-yl)amino]azepane-1-carboxylate]

Same assay, conditions: 1 μM; Examples 201-221; read-out: Percent inhibition at 1 μM

inhibition at 1 µM [%]	Structure (SMILES)
32	COC(=O)N1C[C@H]2CCN(c3nc(-c4ccncc4)cc(=O)n3C)[C@H]2C1 [Example 203, Methyl (3a,R6,aR)-1-(1-methyl-6-oxo-4-pyridin-4-yl-16-dihydropyrimidin-2-yl)hexahydropyrrolo[34-b]pyrrole-5(1H)-carboxylate]
82	COC(=O)N1CCC(Nc2nc(-c3ccncc3)cc(=O)n2C)C1 (stereo not shown) [Example 204, Methyl 3-[(1-methyl-6-oxo-4-pyridin-4-yl-16-dihydropyrimidin-2-yl)amino]pyrrolidine-1-carboxylate]
86	COC(=O)N1CCCC(Nc2nc(-c3ccncc3)cc(=O)n2C)CC1 (stereo not shown) [Example 205, Methyl 4-[(1-methyl-6-oxo-4-pyridin-4-yl-16-dihydropyrimidin-2-yl)amino]azepane-1-carboxylate]
94	COC(=O)N1CCCCC(Nc2nc(-c3ccncc3)cc(=O)n2C)C1 (stereo not shown) [Example 206, Methyl 3-[(1-methyl-6-oxo-4-pyridin-4-yl-16-dihydropyrimidin-2-yl)amino]azepane-1-carboxylate]
74	COC(=O)N1C[C@H](Nc2nc(-c3ccncc3)cc(=O)n2C)[C@@H](F)C1 [Example 207, Methyl (3S,4S)-3-fluoro-4-[(1-methyl-6-oxo-4-pyridin-4-yl-l6-dihydropyrimidin-2-yl)amino]pyrrolidine-1-carboxylate]
77	COC(=O)N1CCC(Nc2nc(-c3ccncc3)cc(=O)n2C)CC1 [Example 208, Methyl 4-[(1-methyl-6-oxo-4-pyridin-4-yl-16-dihydropyrimidin-2-yl)amino]piperidine-1-carboxylate]
80	COC(=O)N1CC(Nc2nc(-c3ccncc3)cc(=O)n2C)C1 [Example 209, Methyl 3-[(1-methyl-6-oxo-4-pyridin-4-yl-16-dihydropyrimidin-2-yl)amino]azetidine-1-carboxylate]
99	COC(=O)N1CCCC(Nc2nc(-c3ccncc3)cc(=O)n2C)C1 (stereo not shown) [Example 210, Methyl 3-[(1-methyl-6-oxo-4-pyridin-4-yl-16-dihydropyrimidin-2-yl)amino]piperidine-1-carboxylate]
67	COC(=O)N1C[C@H](F)[C@H](Nc2nc(-c3ccncc3)cc(=O)n2C)C1 [Example 211, Methyl (3S,4R)-3-fluoro-4-[(1-methyl-6-oxo-4-pyridin-4-yl-16-dihydropyrimidin-2-yl)amino]pyrrolidine-1-carboxylate]
95	COC(=O)N1CCC(N(C)c2nc(-c3ccncc3)cc(=O)n2C)C1 (stereo not shown) [Example 213, Methyl 3-[methyl(1-methyl-6-oxo-4-pyridin-4-yl-16-dihydropyrimidin-2-yl)amino]pyrrolidine-1-carboxylate]
93	CCN(c1nc(-c2ccncc2)cc(=O)n1C)C1CCCN(C(=O)OC)CC1 (stereo not shown) [Example 215, Methyl 4-[ethyl(1-methyl-6-oxo-4-pyridin-4-yl-16-dihydropyrimidin-2-yl)amino]azepane-1-carboxylate]
88	COC(=O)N1CC[C@@]2(C)C[C@H](N(C)c3nc(-c4ccncc4)cc(=O)n3C)CC[C@@H]12 [Example 216, Methyl (3a,S5,R7,aR)-3a-methyl-5-[methyl(1-methyl-6-oxo-4-pyridin-4-yl-16-dihydropyrimidin-2-yl)amino]octahydro-1H-indole-1-carboxylate]
84	CCN(c1nc(-c2ccncc2)cc(=O)n1C)C1CCN(C(=O)OC)CC1 [Example 217, Methyl 4-[ethyl(1-methyl-6-oxo-4-pyridin-4-yl-16-dihydropyrimidin-2-yl)amino]piperidine-1-carboxylate]
68	COC(=O)N1CCC[C@H]1CNc1nc(-c2ccncc2)cc(=O)n1C [Example 218, Methyl (2S)-2-{[(1-methyl-6-oxo-4-pyridin-4-yl-16-dihydropyrimidin-2-yl)amino]methyl}pyrrolidine-1-carboxylate]
72	COC(=O)N1CC(CNc2nc(-c3ccncc3)cc(=O)n2C)C1 [Example 219, Methyl 3-{[(1-methyl-6-oxo-4-pyridin-4-yl-16-dihydropyrimidin-2-yl)amino]methyl}azetidine-1-carboxylate]
91	COC(=O)N1CCC[C@@H]1CNc1nc(-c2ccncc2)cc(=O)n1C [Example 220, Methyl (2R)-2-{[(1-methyl-6-oxo-4-pyridin-4-yl-16-dihydropyrimidin-2-yl)amino]methyl}pyrrolidine-1-carboxylate]
71	COC(=O)N1CCC(CNc2nc(-c3ccncc3)cc(=O)n2C)C1 (stereo not shown) [Example 221, Methyl 3-{[(1-methyl-6-oxo-4-pyridin-4-yl-16-dihydropyrimidin-2-yl)amino]methyl}pyrrolidine-1-carboxylate]

Same assay, conditions: cell free enzyme assay; Examples 222-234

IC50 [nM]	Structure (SMILES)
1.14	CCOC(=O)N1CCCC(N(C)c2nc(-c3ccncn3)cc(=O)n2C)C1 (stereo not shown) [Example 222, Ethyl 3-[methyl(1-methyl-6-oxo-1,6-dihydro-4,4′-bipyrimidin-2-yl)amino]piperidine-1-carboxylate]
1.04	COC(=O)N1CCCC(N(C)c2nc(-c3ccncn3)cc(=O)n2C)C1 (stereo not shown) [Example 223, Methyl 3-[methyl(1-methyl-6-oxo-1,6-dihydro-4,4′-bipyrimidin-2-yl)amino]piperidine-1-carboxylate]
1.11	CCN(C[C@@H]1CCCN1C(=O)OC)c1nc(-c2ccncn2)cc(=O)n1C [Example 224, Methyl (2S)-2-{[ethyl(1-methyl-6-oxo-1,6-dihydro-4,4′-bipyrimidin-2-yl)amino]methyl}pyrrolidine-1-carboxylate]
0.755	CCOC(=O)N1CCC[C@H]1CN(CC)c1nc(-c2ccncn2)cc(=O)n1C [Example 225, Ethyl (2S)-2-{[ethyl(1-methyl-6-oxo-1,6-dihydro-4,4′-bipyrimidin-2-yl)amino]methyl}pyrrolidine-1-carboxylate]
1	CCN(C[C@H]1CCCN1C(=O)OC)c1nc(-c2ccncn2)cc(=O)n1C [Example 226, Methyl (2R)-2-{[ethyl(1-methyl-6-oxo-1,6-dihydro-4,4′-bipyrimidin-2-yl)amino]methyl}pyrrolidine-1-carboxylate]
0.825	CCOC(=O)N1CCC[C@@H]1CN(CC)c1nc(-c2ccncn2)cc(=O)n1C [Example 227, Ethyl (2R)-2-{[ethyl(1-methyl-6-oxo-1,6-dihydro-4,4′-bipyrimidin-2-yl)amino]methyl}pyrrolidine-1-carboxylate]
